Values quoted from earlier work in patent US7670620B2, “Topical composition for the treatment of psoriasis and related skin disorders” (Bioderm, Inc., priority 2000, dated 2010).

Test system: fibroblasts
Conditions: in vitro; Karzel and Domenjoz 1971

| SMILES | Secretion of mucopolysaccharides by fibroblasts |
| --- | --- |
| CC(=O)N[C@H]1C(O)O[C@H](CO)[C@H](O)[C@@H]1O (stereo partly drawn) [N-acetylgalactosamine] | also worked, but to a lesser degree |
| CC(=O)N[C@H]1C(O)O[C@H](CO)[C@@H](O)[C@@H]1O (stereo partly drawn) [N-acetylglucosamine] | also worked, but to a lesser degree |
| N[C@H]1C(O)O[C@H](CO)[C@@H](O)[C@@H]1O (stereo partly drawn) [glucosamine] | significantly increases secretion of mucopolysaccharides by fibroblasts |
